Earlier results, collected in US20180271836A1, “TOPICAL NON-AQUEOUS PHARMACEUTICAL FORMULATIONS CONTAINING AN ALKYL SULFOXIDE FOR THE TREATMENT OF TOPICAL REFERENCE INFECTIONS” (priority 2012, published 2018).

pKa: 6.5
SMILES: Clc1ccc(COC(Cn2ccnc2)c2ccc(Cl)cc2Cl)c(Cl)c1 (stereo not shown) [miconazole]
